Laboratory results published in patent US12528800B2, “Pesticidal compounds” (BASF SE, priority 2018, dated 2026).

Columns and labels:
Assay type in all cases: in vivo
[1] = system: boll weevil (Anthonomus grandis); assay: Action on boll weevil (Anthonomus grandis), microtiter plate diet test; settings: 120 h, egg and larval mortality after 5 days, read-out: mortality in comparison with untreated controls
Experimental: For evaluating control of boll weevil (Anthonomus grandis) the test unit consisted of 96-well-microtiter plates containing an insect diet and 5-10 A. grandis eggs.
The compounds were formulated using a solution containing 75% (v/v) water and 25% (v/v) DMSO. Different concentrations of formulated compounds were sprayed onto the insect diet at 5 μl, using a custom built micro atomizer, at two replications.
After application, microtiter plates were incubated at about 25+1° C. and about 75+5% relative humidity for 5 days. Egg and larval mortality was then visually assessed.

[2] = system: yellow fever mosquito (Aedes aegypti); assay: whole plant or invertebrate; settings: 48 h, larval mortality visually assessed after 2 days, read-out: mortality in comparison with untreated controls
Experimental: For evaluating control of yellow fever mosquito (Aedes aegypti) the test unit consisted of 96-well-microtiter plates containing 200 μl of tap water per well and 5-15 freshly hatched A. aegypti larvae.
The active compounds or mixtures were formulated using a solution containing 75% (v/v) water and 25% (v/v) DMSO. Different concentrations of formulated compounds or mixtures were sprayed onto the insect diet at 2.5 μl using a custom built micro atomizer, at two replications.
For experimental mixtures in these tests identical volumes of both mixing partners at the desired concentrations respectively, were mixed together.
After application, microtiter plates were incubated at 28+1° C., 80+5% RH for 2 days. Larval mortality was then visually assessed.

[3] = system: Southern armyworm (Spodoptera eridania), 2nd instar larvae; assay: Action on southern armyworm (Spodoptera eridania), 2nd instar larvae, sprayed lima bean plants; settings: 96 h, 2nd instar larvae on lima bean plants, 4 days after treatment, read-out: mortality in comparison with untreated controls
Experimental: The active compounds were formulated by a Tecan liquid handler in 100% cyclohexanone as a 10,000 ppm solution supplied in tubes. The 10,000 ppm solution was serially diluted in 100% cyclohexanone to make interim solutions. These served as stock solutions for which final dilutions were made by the Tecan in 50% acetone:50% water (v/v) into 10 or 20 ml glass vials. A nonionic surfactant (Kinetic®) was included in the solution at a volume of 0.01% (v/v). The vials were then inserted into an automated electrostatic sprayer equipped with an atomizing nozzle for application to plants/insects.
Lima bean plants (variety Sieve) were grown 2 plants to a pot and selected for treatment at the 1st true leaf stage. Test solutions were sprayed onto the foliage by an automated electrostatic plant sprayer equipped with an atomizing spray nozzle. The plants were dried in the sprayer fume hood and then removed from the sprayer. Each pot was placed into perforated plastic bags with a zip closure. About 10 to 11 armyworm larvae were placed into the bag and the bags zipped closed. Test plants were maintained in a growth room at about 25° C. and about 20-40% relative humidity for 4 days, avoiding direct exposure to fluorescent light (24 hour photoperiod) to prevent trapping of heat inside the bags. Mortality and reduced feeding were assessed 4 days after treatment, compared to untreated control plants.

[4] = system: tobacco budworm (Heliothis virescens); assay: Action on tobacco budworm (Heliothis virescens), microtiter plate diet test; settings: 120 h, egg and larval mortality after 5 days, read-out: mortality in comparison with untreated controls
Experimental: For evaluating control of tobacco budworm (Heliothis virescens) the test unit consisted of 96-well-microtiter plates containing an insect diet and 15-25 H. virescens eggs.
The compounds were formulated using a solution containing 75% v/v water and 25% v/v DMSO. Different concentrations of formulated compounds were sprayed onto the insect diet at 10 μl, using a custom-built micro atomizer, at two replications.
After application, microtiter plates were incubated at about 28+1° C. and about 80+5% relative humidity for 5 days. Egg and larval mortality were then visually assessed.

[5] = system: Diamond back moth (Plutella xylostella); assay: Action on diamond back moth (Plutella xylostella), cabbage leaf dip; settings: foliar, 3rd instar larvae on dipped cabbage leaves, 72 hours after treatment, read-out: mortality in comparison with untreated controls
Experimental: The active compound is dissolved at the desired concentration in a mixture of 1:1 (v/v) distilled water: acetone. Surfactant (Kinetic® HV) is added at a rate of 0.01% (v/v). The test solution is prepared at the day of use.
Leaves of cabbage were dipped in test solution and air-dried. Treated leaves were placed in petri dishes lined with moist filter paper and inoculated with ten 3rd instar larvae. Mortality was recorded 72 hours after treatment. Feeding damages were also recorded using a scale of 0-100%.

[6] = system: Silverleaf whitefly (Bemisia argentifolii) (adults); assay: Action on silverleaf whitefly (Bemisia argentifolii) adults, sprayed cotton plants; settings: 72 h, 3 days after treatment, read-out: mortality in comparison with untreated controls
Experimental: The active compounds were formulated by a Tecan liquid handler in 100% cyclohexanone as a 10,000 ppm solution supplied in tubes. The 10,000 ppm solution was serially diluted in 100% cyclohexanone to make interim solutions. These served as stock solutions for which final dilutions were made by the Tecan in 50% acetone:50% water (v/v) into 5 or 10 ml glass vials. A nonionic surfactant (Kinetic®) was included in the solution at a volume of 0.01% (v/v). The vials were then inserted into an automated electrostatic sprayer equipped with an atomizing nozzle for application to plants/insects.
Cotton plants at the cotyledon stage (one plant per pot) were sprayed by an automated electrostatic plant sprayer equipped with an atomizing spray nozzle. The plants were dried in the sprayer fume hood and then removed from the sprayer. Each pot was placed into a plastic cup and about 10 to 12 whitefly adults (approximately 3-5 days old) were introduced. The insects were collected using an aspirator and a nontoxic Tygon® tubing connected to a barrier pipette tip. The tip, containing the collected insects, was then gently inserted into the soil containing the treated plant, allowing insects to crawl out of the tip to reach the foliage for feeding. Cups were covered with a reusable screened lid. Test plants were maintained in a growth room at about 25° C. and about 20-40% relative humidity for 3 days, avoiding direct exposure to fluorescent light (24 hour photoperiod) to prevent trapping of heat inside the cup. Mortality was assessed 3 days after treatment, compared to untreated control plants.

[7] = system: Orchid thrips (Dichromothrips corbetti); assay: Action on orchid thrips (Dichromothrips corbetti), floral-immersion technique; settings: adult thrips, 72 hours after treatment, read-out: mortality in comparison with untreated controls
Experimental: Dichromothrips corbetti adults used for bioassay were obtained from a colony maintained continuously under laboratory conditions. For testing purposes, the test compound is diluted in a 1:1 mixture of acetone:water (vol:vol), plus Kinetic® HV at a rate of 0.01% v/v.
Thrips potency of each compound was evaluated by using a floral-immersion technique. All petals of individual, intact orchid flowers were dipped into treatment solution and allowed to dry in Petri dishes. Treated petals were placed into individual re-sealable plastic along with about 20 adult thrips. All test arenas were held under continuous light and a temperature of about 28° C. for duration of the assay. After 3 days, the numbers of live thrips were counted on each petal. The percent mortality was recorded 72 hours after treatment.

SMILES: CC(C)c1ccccc1NC(=S)N/N=C/c1ccc(-c2cc(COc3ccc(OC(F)(F)F)cc3)n(C)n2)cc1 [Compound C-52, 1-(2-isopropylphenyl)-3-[(E)-[4-[1-methyl-5-[[4-(trifluoromethoxy)phenoxy]methyl]pyrazol-3-yl]phenyl]methyleneamino]thiourea]
- mortality at 800 ppm [1]: ≥ 75%
- mortality at 800 ppm [2]: ≥ 50%
- mortality at 300 ppm [3]: ≥ 75%
- mortality at 800 ppm [4]: ≥ 75%
- mortality at 500 ppm [5]: ≥ 75%
- mortality at 300 ppm [6]: ≥ 75%
- mortality at 500 ppm [7]: ≥ 75%

SMILES: CCn1nc(-c2ccc(/C=N/NC(=S)Nc3ccccc3C(C)C)cc2)cc1NC(=O)c1ccc(OC(F)(F)F)cc1 [Compound C-29, N-[2-ethyl-5-[4-[(E)-[(2-isopropylphenyl)carbamothioylhydrazono]methyl]phenyl]pyrazol-3-yl]-4-(trifluoromethoxy)benzamide]
- mortality at 800 ppm [1]: ≥ 75%
- mortality at 800 ppm [2]: ≥ 50%
- mortality at 300 ppm [3]: ≥ 75%
- mortality at 800 ppm [4]: ≥ 75%
- mortality at 500 ppm [5]: ≥ 75%
- mortality at 500 ppm [7]: ≥ 75%

SMILES: CC(C)c1ccccc1NC(=S)N/N=C/c1ccc(-c2cc(NC(=O)c3ccc(OC(F)(F)F)cc3)n(C)n2)cc1 [Compound C-1, N-[5-[4-[(E)-[(2-isopropylphenyl)carbamothioylhydrazono]methyl]phenyl]-2-methyl-pyrazol-3-yl]-4-(trifluoromethoxy)benzamide]
- mortality at 800 ppm [1]: ≥ 75%
- mortality at 800 ppm [2]: ≥ 50%
- mortality at 300 ppm [3]: ≥ 75%
- mortality at 800 ppm [4]: ≥ 75%
- mortality at 500 ppm [5]: ≥ 75%
- mortality at 300 ppm [6]: ≥ 75%
- mortality at 500 ppm [7]: ≥ 75%

SMILES: CC(C)c1ccccc1NC(=S)N/N=C/c1ccc(-c2cc(OCc3ccc(OC(F)(F)F)cc3)n(C)n2)cc1 [Compound C-10, 1-(2-isopropylphenyl)-3-[(E)-[4-[1-methyl-5-[[4-(trifluoromethoxy)phenyl]methoxy]pyrazol-3-yl]phenyl]methyleneamino]thiourea]
- mortality at 800 ppm [1]: ≥ 75%
- mortality at 300 ppm [3]: ≥ 75%
- mortality at 800 ppm [4]: ≥ 75%
- mortality at 500 ppm [5]: ≥ 75%
- mortality at 300 ppm [6]: ≥ 75%
- mortality at 500 ppm [7]: ≥ 75%
